Reference: paper PMC12040169 (PLOS Biology, 2025)

Experiment: in vitro
Conditions: human, hela cells, % viability

Structure (SMILES) | viability at 28.5 h, 10 µM [%]
CC(C)N1CC[C@@H]2[C@H]1C(=O)NC[C@H](CCC(=O)Nc1ccccc1)N2C [CBK289030] | 86.1
CN1[C@@H](CCC(=O)N2CCN(c3ccccn3)CC2)CNC(=O)[C@H]2NCC[C@H]21 [CBK289031] | 95.2
C#CCNC(=O)CC[C@H]1CNC(=O)[C@@H]2[C@@H](CCN2Cc2cccs2)N1C [CBK289033] | 103
C#CCNC(=O)CC[C@H]1CNC(=O)[C@@H]2[C@@H](CCN2Cc2ccccc2)N1C [CBK289034] | 101
C#CCNC(=O)CC[C@H]1CNC(=O)[C@@H]2[C@@H](CCN2CC(C)(C)C)N1C [CBK289035] | 95.1
COC[C@H]1CCCN1C(=O)CC[C@H]1CNC(=O)[C@@H]2[C@@H](CCN2C2CCOCC2)N1C [CBK289037] | 90.9
CC1(C)C[C@H](NC2CCOCC2)[C@@]2(CCC(=O)N3CCOCC3)CC[C@](C)(O)C[C@@H]12 [CBK289041] | 91.6
CC1(C)C[C@H](NC(=O)c2cccs2)[C@@]2(CCC(=O)N3CCCC3)CC[C@](C)(O)C[C@@H]12 [CBK289042] | 122
COCC(=O)N[C@H]1CC(C)(C)[C@@H]2C[C@@](C)(O)CC[C@]12CCC(=O)N1CCCC1 [CBK289043] | 88.4
CC1(C)C[C@H](NC(=O)C2CC2)[C@@]2(CCC(=O)N3CCCC3)CC[C@](C)(O)C[C@@H]12 [CBK289044] | 88.1
CC1(C)C[C@H](NC(=O)c2ccccc2)[C@@]2(CCC(=O)NC3CC3)CC[C@](C)(O)C[C@@H]12 [CBK289045] | 92.6
CC1=C[C@@H](CNC(=O)NC(C)C)[C@H](C(C)C)C[C@H]1CC(=O)N1CCN(C)CC1 [CBK289047] | 100
CC1=C[C@@H](CNC(=O)Nc2ccccc2)[C@H](C(C)C)C[C@H]1CC(=O)N1CCN(C)CC1 [CBK289048] | 121
CC1=C[C@@H](CNS(C)(=O)=O)[C@H](C(C)C)C[C@H]1CC(=O)N1CCOCC1 [CBK289050] | 89.3
CCNC(=O)NC[C@@H]1C=C(C)[C@H](CC(=O)N2CCOCC2)C[C@H]1C(C)C [CBK289051] | 102
COc1ccc(CN2C(=O)CO[C@H]3CN(c4nccc(C)n4)C[C@H]32)cc1 [CBK289056] | 86.1
CC(=O)Nc1ccc([C@@H](O)[C@H]2COCC(=O)N2C)cc1 [CBK289059] | 97.7
O=C(Nc1ccc([C@@H](O)[C@H]2COCC(=O)N2Cc2ccc(F)cc2)cc1)c1ccccc1 [CBK289061] | 86.1
O=C(N[C@@H]1CNCCC[C@H]1O)c1ccc(OCc2ccccc2)cc1 [CBK289064] | 100
O=C(N[C@@H]1CNCCC[C@H]1O)c1ccc(OCCN2CCOCC2)cc1 [CBK289065] | 98.3
CCNC(=O)N1CCC[C@@H](O)[C@H](NC(=O)c2ccc(OC)cc2)C1 [CBK289066] | 88.2
COc1ccc(C(=O)N2C[C@@H]3C[C@H](C2)c2ccc(NC(=O)C4CC4)c(=O)n2C3)cc1 [CBK289072] | 90
N#Cc1ccc(C(=O)Nc2ccc3n(c2=O)C[C@H]2C[C@@H]3CN(C(=O)c3ccccc3)C2)cc1 [CBK289073] | 109
O=C(Nc1ccc2n(c1=O)C[C@H]1C[C@@H]2CN(C(=O)NC2CCCCC2)C1)c1cnccn1 [CBK289076] | 86.8
O=C(Nc1ccc2n(c1=O)C[C@H]1C[C@@H]2CN(c2ncccn2)C1)c1ccccc1 [CBK289077] | 86.4

Structure (SMILES) | viability at 28.5 h, 10 µM [%]
O=C(NCc1ccc2c(c1)OCO2)[C@H]1CN2CCC1C[C@@H]2Cn1cc(-c2ccccn2)nn1 (some centres unmarked) [CBK289082] | 102
Nc1cccc(-c2cn(C[C@H]3CC4CCN3C[C@@H]4C(=O)NC3CCCCC3)nn2)c1 (some centres unmarked) [CBK289083] | 84.2
COc1ccc(-c2cn(C[C@H]3CC4CCN3C[C@@H]4C(=O)NC3CCCCC3)nn2)cc1 (some centres unmarked) [CBK289084] | 107
CC(C)(C)c1cn(C[C@H]2CC3CCN2C[C@@H]3C(=O)NC2CCCCC2)nn1 (some centres unmarked) [CBK289085] | 83.9
O=C(NCc1ccc(F)cc1)[C@H]1CN2CCC1C[C@@H]2Cn1cc(C2(O)CCCC2)nn1 (some centres unmarked) [CBK289093] | 109
CCCS(=O)(=O)NC[C@H]1C[C@@H]2CCN1C[C@@H]2c1cc(-c2ccccc2)nn1C [CBK289095] | 93.8
Cn1nc(-c2ccccc2)cc1[C@H]1CN2CC[C@H]1C[C@@H]2CNC(=O)NCc1ccccc1 [CBK289098] | 104
COc1ccc(-c2cc([C@H]3CN4CC[C@H]3C[C@@H]4CNC(=O)c3ccco3)n(C)n2)cc1 [CBK289099] | 113
Cn1nc(-c2cccs2)cc1[C@H]1CN2CC[C@H]1C[C@@H]2CNS(C)(=O)=O [CBK289102] | 93.5
CC(C)NC(=O)NC[C@H]1C[C@@H]2CCN1C[C@@H]2c1cc(-c2cccs2)nn1C [CBK289103] | 90
Cn1nc(-c2cccs2)cc1[C@H]1CN2CC[C@H]1C[C@@H]2CNC(=O)Nc1ccccc1 [CBK289104] | 89
CCNC(=O)NC[C@H]1C[C@@H]2CCN1C[C@@H]2c1cc(-c2ccccc2OC)nn1C [CBK289105] | 118
Cn1nc(C2CCCCC2)cc1[C@H]1CN2CC[C@H]1C[C@@H]2CNC(=O)c1ccco1 [CBK289106] | 95.3
Cn1nc(-c2ccc(F)cc2)cc1[C@H]1CN2CC[C@H]1C[C@@H]2CNC(=O)N1CCOCC1 [CBK289108] | 116
CCNC(=O)NC[C@H]1C[C@@H]2CCN1C[C@@H]2c1cc(-c2ccc(F)cc2)nn1C [CBK289110] | 88
CC(C)NC(=O)NC[C@H]1C[C@@H]2CC[N@]1C[C@@H]2CN1CCN(c2ccccn2)CC1 [CBK289112] | 105
O=C(NC[C@H]1C[C@@H]2CC[N@]1C[C@@H]2CN1CCN(c2ccccn2)CC1)Nc1ccsc1 [CBK289113] | 101
O=C(NC[C@H]1C[C@@H]2CC[N@]1C[C@@H]2CN1CCN(c2ccccn2)CC1)Nc1ccccc1 [CBK289114] | 106
COc1ccccc1-c1cc([C@H]2CN3CC[C@H]2C[C@@H]3CNC(=O)c2ccco2)nc(C)n1 [CBK289119] | 105
Cc1nc(C2CCCC2)cc([C@H]2CN3CC[C@H]2C[C@@H]3CNC(=O)c2ccco2)n1 [CBK289120] | 109
COCC(=O)NC[C@H]1C[C@@H]2CCN1C[C@@H]2c1cc(-c2ccccc2)nc(C)n1 [CBK289123] | 89.3
CCNC(=O)NC[C@H]1C[C@@H]2CCN1C[C@@H]2c1cc(-c2ccccc2)nc(C)n1 [CBK289125] | 116
CC[C@H]1CN(C(=O)C2CC2)CC[C@H]1CC(=O)N(C)CC#N [CBK289132] | 85.9
CC[C@H]1CN(C(=O)N2CCOCC2)CC[C@H]1CC(=O)NCCOC [CBK289134] | 100
CC[C@H]1CN(C(=O)c2ccnc(Cl)c2)CC[C@H]1CC(=O)O [CBK289139] | 92

Structure (SMILES) | viability at 28.5 h, 10 µM [%]
CC(C)(C)NC(=O)C[C@@H]1CCNC[C@@H]1Cc1cc(-c2ccccc2)on1 [CBK289145] | 86
O=C(C[C@@H]1CCNC[C@@H]1Cc1cc(-c2ccccc2)on1)NC1CC1 [CBK289146] | 88
O=C(C[C@@H]1CCNC[C@@H]1Cc1cc(-c2ccccc2)on1)N1CCN(c2ccccc2)CC1 [CBK289148] | 83.2
CN1CCN(C(=O)C[C@@H]2CCNC[C@@H]2Cc2cc(CC3CCCCC3)on2)CC1 [CBK289151] | 84.3
COc1ccc(-c2cc(C[C@H]3CNCC[C@H]3CC(=O)N3CCN(C)CC3)no2)cc1 [CBK289152] | 83.8
O=C(C[C@@H]1CCNC[C@@H]1Cc1cc(CN2CCCCC2)on1)N1CCCCC1 [CBK289153] | 86.8
COc1ccc2c(c1)CCN=C2C[C@H]1CN(C(=O)NC(C)C)CC[C@H]1CC(=O)O [CBK289156] | 90
COc1ccc2c(c1)C(C[C@H]1CN(C(=O)C3CC3)CC[C@H]1CC(=O)O)=NCC2 [CBK289157] | 85.7
CN(C)c1ccc(C(=O)N2CC[C@@H](CC(=O)O)[C@@H](CC3=NCCc4ccccc43)C2)cc1 [CBK289159] | 94.8
O=C(O)C[C@@H]1CCN(C(=O)c2ccc3c(c2)OCO3)C[C@@H]1CC1=NCCc2ccccc21 [CBK289160] | 110
Cc1ccc2c(c1)C(C[C@H]1CN(C(=O)c3ccco3)CC[C@H]1CC(=O)O)=NCC2 [CBK289162] | 79.1
COc1cccc2c1CCN=C2C[C@H]1CN(C(=O)C2CC2)CC[C@H]1CC(=O)O [CBK289164] | 94.5
Cc1nn(-c2ccccn2)c(C)c1[C@@H]1C=C[C@@H](NC(=O)NC(C)C)C1 [CBK289168] | 91.4
CCNC(=O)N[C@@H]1C=C[C@@H](c2c(C)nn(CCC#N)c2C)C1 [CBK289171] | 111
Cc1nn(CCC#N)c(C)c1[C@@H]1C=C[C@@H](NC(=O)NC(C)C)C1 [CBK289172] | 89.2
O=C(Nc1ccc2n(c1=O)C[C@H]1C[C@@H]2CN(C(=O)COc2ccccc2)C1)C1CCCCC1 [CBK289175] | 91.9
N#Cc1ccc(C(=O)N2C[C@@H]3C[C@H](C2)c2ccc(-c4cccs4)c(=O)n2C3)cc1 [CBK289180] | 86
Cc1ccccc1-c1ccc2n(c1=O)C[C@H]1C[C@@H]2CN(C(=O)CCC(=O)O)C1 [CBK289181] | 111
O=C(NC1CCCCC1)N1C[C@@H]2C[C@H](C1)c1ccc(-c3cccnc3)c(=O)n1C2 [CBK289183] | 93.6
O=C(c1ccc(F)cc1)N1C[C@@H]2C[C@H](C1)c1ccc(-c3cncnc3)c(=O)n1C2 [CBK289185] | 92.9
CC(=O)Nc1ccc(-c2ccc3n(c2=O)C[C@H]2C[C@@H]3CN(C(=O)C3CCCCC3)C2)cc1 [CBK289188] | 84.6
COc1ccc(-c2ccc(=O)n3c2[C@@H]2C[C@@H](CN(C(=O)NC4CCCCC4)C2)C3)cc1 [CBK289189] | 82.1
COc1ccccc1NC(=O)N1C[C@@H]2C[C@H](C1)c1c(-c3cccs3)ccc(=O)n1C2 [CBK289191] | 107
COc1ccccc1NC(=O)N1C[C@@H]2C[C@H](C1)c1c(-c3ccccc3F)ccc(=O)n1C2 [CBK289192] | 92.7
